Test results taken from patent EP2545917B1, “NOVEL EP4 AGONIST” (Kaken Pharmaceutical Co., Ltd., priority 2010, dated 2011).

How the values were obtained:
intraocular pressure = test: Effect on intraocular pressure in rabbits; assay type: in vivo, Japanese white rabbits; details: 0.01 w/v% solution, 50 µL/eye
Method: (§1) Japanese white rabbits (male, 10 weeks old, BIOTEC Co., Ltd.) were purchased, acclimated for 1 week and used for the study. Compound F solution (0.01 w/v%) was instilled once into the cornea of both eyes at a volume of 50 µL/eye with a micropipette. The intraocular pressure of the right eye was measured and the local irritative effect on the eye was evaluated using the left eye. After surface anesthesia with oxybupranol (Benoxil 0.4% instillation solution), the intraocular pressure was measured before ocular instillation ) and 1, 2, 3, 4, 6 and 8 hr after the instillation using a pneumatonometer (Alcon Ltd.). In addition, the local irritative effect on the eye was evaluated by scoring conjunctival congestion, conjunctival edema, cornea opacity, iris congestion, excretion and eye closure performance. For the evaluation, phosphate buffer was used for the solvent control group, and isopropyl unoprostone (Rescula eye drops, Santen Pharmaceutical Co., Ltd.) was used for comparison. Six animals were used for each group and the results were expressed as average.

[1] = test system: Human Platelet Aggregation; test: Inhibitory effect on ADP-induced platelet aggregation in platelet-rich plasma; assay type: cell-based; details: ADP 10 µmol/L, geometric mean of three volunteers
Method: The inhibitory effect of compounds F and J, and carboxylate forms thereof on platelet aggregation was evaluated. The carboxylate forms were prepared by separating and purifying the compound synthesized in Example 15 with a column. Blood was drawn from 3 healthy volunteers using sodium citrate as an anticoagulant, and platelet-rich plasma was prepared. The platelet-rich plasma was treated with physiological saline or test compounds and, 2 min later, platelet aggregation was induced with adenosine diphosphate (ADP, final concentration 10 µmol/L) and recorded with a platelet aggregation measurement apparatus (nephelometry).

eye = test: Local irritative effect on the eye in rabbits; assay type: in vivo, Japanese white rabbits; details: single instillation, left eye
Method: as §1

Human EP1 = target: T1, Human EP1 (Homo sapiens, UniProt P34995); test: Receptor affinity, tritium-labeled PGE2 binding to membranes of transfected COS-7 cells
T1 construct: expressed in transfected cells; host or cells: COS-7
T1 sequence (P34995 1-402): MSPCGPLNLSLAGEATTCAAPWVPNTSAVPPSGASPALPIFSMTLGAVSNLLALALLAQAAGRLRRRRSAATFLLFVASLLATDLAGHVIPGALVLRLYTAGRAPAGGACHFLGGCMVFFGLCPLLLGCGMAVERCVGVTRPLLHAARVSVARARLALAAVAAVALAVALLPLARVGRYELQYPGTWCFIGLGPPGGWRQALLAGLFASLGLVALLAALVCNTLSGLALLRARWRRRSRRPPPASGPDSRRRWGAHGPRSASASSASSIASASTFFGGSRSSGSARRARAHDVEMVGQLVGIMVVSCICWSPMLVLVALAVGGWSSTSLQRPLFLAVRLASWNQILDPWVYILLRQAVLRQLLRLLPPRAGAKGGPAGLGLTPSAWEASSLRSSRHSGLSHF
Method: PG receptor affinity of compound F and compound J of the present invention was evaluated. Compound F used was one synthesized in Example 9, and compound J was prepared by separating and purifying the compound synthesized in Example 14 with a column (the same preparations were used in the following Examples). COS-7 cells were transfected with the genes of mouse EP4, human EP1-4 or human IP to overexpress the receptor and then the cell membranes were collected. As a labeled ligand, tritium-labeled PGE2 was used for EPs; tritium-labeled iloprost, for IP. The dissociation constant Kd value was obtained and inhibition constant Ki value of each test compound was determined in a conventional method. As a reference control, PGE2 was used for EPs; beraprost sodium (BPS), for IP.

[2] = test system: CD4+CD25- T cell transfer colitis; test: Prophylactic effect on CD4+CD25- T cell transfer colitis model in mice; assay type: in vivo, C.B-17/Icr-scid mice; details: scid mice, oral 1 mg/kg once a day for 20 days
Method: Female BALB/cA Jcl mice, 6 weeks old, body weight 19 - 23 g (CLEA Japan, Inc.) and female C.B-17/Icr-scid mice (6 weeks old, CLEA Japan, Inc.) were purchased, acclimated for 1 week and used for the study. After laparotomy under ether anesthesia, BALB/cA Jcl mice were exsanguinated to death through the abdominal aorta and caudal vena cava, and the spleen was isolated. Splenocytes were prepared from the spleen and then CD4^+CD25^- T cells were prepared with a CD4^+ T cell Isolation Kit (No. 130-090-860, Milky Biotech Co., Ltd.) and CD25-Biotin antibody (No. 130-092-569, Milky Biotech Co., Ltd.). The cells were separated using the autoMACS Separator (Milky Biotech Co., Ltd.). The separated CD4^+CD25^- T cells were suspended in physiological phosphate buffer solution, and 2.5×10^5 cells per animal were intraperitoneally administered to C.B-17/Icr-scid mice to induce colitis. […] To the control group was orally administered a solvent (1 vol% ethanol solution) at 10 mL/kg. […] The fecal occult blood score was evaluated in the same manner as in Example 23. […] Eight to 10 mice were used for each group and the results were expressed as average.

Human EP4 = target: T2, Human EP4 (Homo sapiens, UniProt P35408); test: Receptor affinity, tritium-labeled PGE2 binding to membranes of transfected COS-7 cells
T2 construct: expressed in transfected cells; host or cells: COS-7
T2 sequence (P35408 whole entry): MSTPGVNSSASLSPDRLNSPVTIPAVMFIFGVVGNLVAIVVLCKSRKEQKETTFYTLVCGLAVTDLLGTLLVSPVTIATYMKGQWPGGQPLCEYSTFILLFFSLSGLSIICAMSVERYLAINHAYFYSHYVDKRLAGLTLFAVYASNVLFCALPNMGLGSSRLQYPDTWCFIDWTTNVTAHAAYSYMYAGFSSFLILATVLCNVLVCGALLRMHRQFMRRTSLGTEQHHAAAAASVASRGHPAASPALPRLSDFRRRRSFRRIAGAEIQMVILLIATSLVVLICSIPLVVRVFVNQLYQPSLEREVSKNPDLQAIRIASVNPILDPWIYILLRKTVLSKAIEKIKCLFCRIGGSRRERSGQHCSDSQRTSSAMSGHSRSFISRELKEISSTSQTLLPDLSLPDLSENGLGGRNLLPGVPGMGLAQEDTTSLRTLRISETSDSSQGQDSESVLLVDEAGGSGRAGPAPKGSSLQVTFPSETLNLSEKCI
Method: (§2) COS-7 cells were transfected with the genes of mouse EP4, human EP1-4 or human IP to overexpress the receptor and then the cell membranes were collected. […] The dissociation constant Kd value was obtained and inhibition constant Ki value of each test compound was determined in a conventional method.

Human EP3 = target: T3, Human EP3 (Homo sapiens, UniProt P43115); test: as above
T3 construct: expressed in transfected cells; host or cells: COS-7
T3 sequence (P43115 1-390): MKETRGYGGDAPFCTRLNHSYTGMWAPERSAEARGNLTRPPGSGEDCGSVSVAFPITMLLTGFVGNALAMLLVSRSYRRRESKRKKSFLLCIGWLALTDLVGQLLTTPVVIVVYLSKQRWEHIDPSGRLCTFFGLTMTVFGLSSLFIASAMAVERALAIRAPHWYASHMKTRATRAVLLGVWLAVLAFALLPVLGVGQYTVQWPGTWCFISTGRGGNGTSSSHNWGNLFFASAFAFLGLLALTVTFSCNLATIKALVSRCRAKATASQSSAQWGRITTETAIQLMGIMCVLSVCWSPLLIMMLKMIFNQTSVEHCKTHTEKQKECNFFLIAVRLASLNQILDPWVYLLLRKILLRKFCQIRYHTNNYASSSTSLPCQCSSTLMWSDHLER
Method: as §2

IC50 [1]: 917 nM
Ki (Human EP1): 610 nM
Ki (Human EP4): 6.6 nM
affinity for binding to human EP4 higher than that to human IP (Human EP4; ratio of Ki values): ≥ 100 fold
affinity for binding to human EP4 higher than those to human EP1, EP2 and EP3 receptors (Human EP4; ratio of Ki values): ≥ 60 fold
Ki (Human EP3): 410 nM
SMILES: Cc1cccc([C@@H](C)[C@H](O)/C=C/[C@@H]2[C@@H]3[C@H](C[C@H]2O)O/C(=C\CCCc2nnn[nH]2)C3(F)F)c1 [Compound F, 4-[(Z)-(1S,5R,6R,7R)-6-[(1E,3R,4R)-3-hydroxy-4-(m-tolyl)-1-pentenyl]-7-hydroxy-2-oxa-4,4-difluoro-bicyclo[3.3.0]octan-3-ylidene]-1-(tetrazol-5-yl)butane]
decrease in intraocular pressure (intraocular pressure; 1 hr after the instillation): 6.9 mmHg
decrease in intraocular pressure (intraocular pressure; 2 hr after the instillation): 9.3 mmHg
decrease in intraocular pressure (intraocular pressure; 6 hr after the instillation): 6.6 mmHg
local irritant effect on the eye (eye): conjunctival edema and eye closure were observed 1 hr after the instillation in some animals
DAI score [2]: comprehensively superior to prednisolone
effect on body weight decrease score [2]: prevented the increase in the body weight decrease score almost completely
